Measurements taken from US20110190137A1, “METHOD TO INHIBIT ETHYLENE RESPONSES IN PLANTS” (priority 2003, published 2011).

Experiments:
[1] = system: ethylene-induced epinasty in Patio variety tomato plants; experiment: Tomato epinasty test, volatile gas treatment; assay type: in vivo; settings: for Gas @ 10 ppm: visual rating of protection against ethylene-induced epinasty: gas 10 ppm v/v, 10 ppm ethylene, scale 0 to 10 (10 = complete protection); for Gas @ 1000 ppm: visual rating of protection against ethylene-induced epinasty: gas 1000 ppm v/v, 10 ppm ethylene after 4 h, scored 16 h later, scale 0 (no protection) to 10 (complete protection)
Procedure: (§1) Objective: The test procedure is designed to determine the ability of an experimental compound to block the epinastic growth response induced by ethylene in tomato plants when the experimental compound is administered either as a volatile gas or as a component of a spray solution.
(§2) Treatment chambers are of an appropriate size for the test plants and are airtight. Each is fitted with a reusable septum to be used for injection of ethylene. Test plants are Patio variety tomato seedlings planted two plants per three inch square plastic pot.
Volatile gas treatment entails placing two pots of Patio var. tomatoes into a polystyrene 4.8 L volume treatment chamber along with one-half (upper or lower section) of a 50×9 mm plastic Petri dish containing a Gelman filter pad. The appropriate amount of experimental compound, dissolved in 1.0 ml acetone, is pipetted onto the filter pad and the chamber immediately sealed. Four hours later ethylene gas equal to 10 ppm v/v final concentration is injected into the sealed chamber. Sixteen hours later the chambers are opened in an exhaust hood, allowed to air and the plants scored visually for the degree of protection against ethylene-induced epinasty conferred by the experimental compound when compared to ethylene treated and untreated controls on a scale of 0 to 10. A rating of 10 means complete protection. A rating of 0 means no protection from the effects of ethylene. Gas treatment concentrations are volume/volume.

[2] = system: ethylene-induced epinasty in Patio variety tomato plants; experiment: Tomato epinasty test, spray application treatment; assay type: in vivo; settings: spray 10 ppm in 10% acetone/90% water, 0.05% Silwett L-77; 10 ppm ethylene; scale 0 to 10 (10 = complete protection)
Procedure: as §1, §2
Spray application treatment entails using a DeVilbiss atomizer to completely cover all foliage and stems of two pots of Patio var. tomato plants with the appropriate amount of experimental compound dissolved in 10% acetone/90% water with 0.05% Silwett L-77 surfactant. Plants are air-dried in a drying hood for four hours then transferred to a 4.8 L polystyrene chamber which is sealed.
Ethylene gas equal to 10 ppm v/v final concentration is injected into the sealed chamber. Sixteen hours later the chambers are opened in an exhaust hood, allowed to air and the plants scored visually for the degree of protection against ethylene-induced epinasty conferred by the experimental compound when compared to ethylene treated and untreated controls on a scale of 0 to 10. A rating of 10 means complete protection. A rating of 0 means no protection from the effects of ethylene.

Compound | Gas @ 10 ppm: visual rating of protection against ethylene-induced epinasty [1] | Gas @ 1000 ppm: visual rating of protection against ethylene-induced epinasty [1] | Spray @10 ppm: visual rating of protection against ethylene-induced epinasty [2] | other results
O=C(OCCC1=CC1)c1cnc(Cl)c(Cl)c1 [Compound 50] | 0 | 9 | 0 | –
C1=C(Cc2ccccc2)C1 [Compound 17] | 9 | – | 2 | –
COc1ccccc1CC1=CC1 [Compound 26] | 10 | – | 5 | –
C1=C(CCCSc2ccccn2)C1 [Compound 55, 1-(2-Pyridylthiopropyl)-cyclopropene] | – | – | 3 | Gas @ 800 ppm: rating of protection against epinasty ([1]; gas 800 ppm (in cell), scale 0 to 10): 10(@800
O=S(=O)(OCCCCCCCCC1=CC1)c1ccccc1 [Compound 56, 1-(8-Benzenesulfonyloxyoctyl)-cyclopropene] | 5 | – | 10 | –
CCC1=C(COS(C)(=O)=O)C1 [Compound 83, 1-(Methanesulfonyloxymethyl)-2-ethylcyclopropene] | 4 | 10 | 2 | –
O=C(OCCCC1=CC1)c1cnccn1 [Compound 61] | 0 | – | 0 | Gas @ 438 ppm: rating of protection against epinasty ([1]; gas 438 ppm (in cell), scale 0 to 10): 10(@438
C[Si](C)(C)CC1=CC1 [Compound 64, 1-Trimethylsilylmethylcyclopropene] | 10 | – | 9 | –
CCCCCCCCC1=CC1C(=O)O (centres unmarked) [Compound 78, 1-Octyl-3-carboxy-cyclopropene] | 0 | 5 | 0 | Gas @ 500 ppm: rating of protection against epinasty ([1]; scale 0 to 10): 10
O=S(=O)(OCCC1=CC1)c1ccccc1 [Compound 10, 2-(2-Benzenesulfonyloxyethyl)-cyclopropene] | 10 | – | 10 | –
CCCC[Si](C)(C)C1=C(C)C1 [Compound 80, 1-(Butyldimethylsilyl)-2-methylcyclopropene] | 0 | 7 | 0 | –
ClC1=C(Cc2ccccc2)C1 [Compound 46, 1-Benzyl-2-chlorocyclopropene] | 5 | 10 | 0 | –
C1=C(CCCCCCCn2cccn2)C1 [Compound 32] | 3 | 10 | 10 | –
C1=C(CC2CCCCCC2)C1 [Compound 22] | 9 | – | 10 | –
C[Si](C)(C)CCC1C=C1 [Compound 66, 2-(Trimethylsilyl)-ethylcycloprop-2-ene] | 10 | – | 10 | –
Cc1ccc(C(=O)OCCCCC2=CC2)cc1 [Compound 44, 1-(4-Methylphenylcarbonyloxybutyl)-cyclopropene] | 0 | 7 | 0 | –
CCCCCCCCC1=C(Br)C1 [Compound 71, 1-Bromo-2-octyl-cyclopropene] | 1 | 10 | 3 | –
C1=C(CCSc2ccccn2)C1 [Compound 35] | 10 | – | 9 | –

Compound | Gas @ 10 ppm: visual rating of protection against ethylene-induced epinasty [1] | Gas @ 1000 ppm: visual rating of protection against ethylene-induced epinasty [1] | Spray @10 ppm: visual rating of protection against ethylene-induced epinasty [2] | other results
C1=C(CCCCCCCn2ccnc2)C1 [Compound 12, 7-(1-Imidazole)-1-heptylcyclopropene] | 5.5 | – | 3.5 | Gas, tested at 850 ppm: rating of protection against epinasty ([1]; gas 850 ppm (footnote b or in cell), scale 0 to 10): 10^b
C1=C(CCCC2OCCCO2)C1 [Compound 3, 2-(3-Cycloprop-1-enyl-propyl)-[1,3]dioxane] | 8 | – | 0 | –
O=C(O)CC1(c2ccccc2)C(c2ccccc2)=C1c1ccccc1 [Compound 40, 3-Hydroxycarbonylmethyl-1,2,3-triphenylcyclopropene] | 7 | – | 0 | –
CCCCCC1(C)C=C1 [Compound 72, 3-Methyl-3-pentyl-cyclopropene] | 0 | 9 | 2 | –
Cc1ccc(SCCCCCCCCC2=CC2)cc1 [Compound 57, 1-(4-Methylphenylthiooctyl)-cyclopropene] | 0 | 10 | 2 | –
C1=C(CC2CCCC2)C1 [Compound 31] | 9 | – | 7.5 | –
C(CCCCCCC1=CC1)=NN1CCCCC1 [Compound 36, 1-(7-(N-piperidinoimino-heptyl))-cyclopropene] | 5 | – | 3 | Gas @ 500 ppm: rating of protection against epinasty ([1]; scale 0 to 10): 10^c^
CC1(Cc2ccccc2)C=C1 [Compound 20] | 0 | 7 | 0 | –
Clc1ccc(SCCC2=CC2)cc1 [Compound 9, 1-(2-(4-Chlorophenylthio)ethyl)cyclopropene] | 10 | – | 10 | –
CCSCCCCCCCC1=CC1 [Compound 70, 1-(7-Ethanethioheptyl)-cyclopropene] | 2 | – | 10 | –
CC1(c2ccccc2)C=C1 [Compound 6, 3-Methyl-3-phenylcyclopropene] | 2.5 | 7 | 1 | –
Clc1ccc(CCC2=CC2)cc1 [Compound 28] | 9.5 | – | 8 | –
Clc1ccc(CC2=CC2)cc1 [Compound 1, 1-Chloro-4-cycloprop-1-enylmethyl-benzene] | 10 | – | 10 | –
CCOP(=S)(OCC)SCC1=C(CC)C1 [Compound 84, 1-(Diethoxy-thiophosphorylthiomethyl)-2-ethylcyclopropene] | 0 | 10 | 0 | –
Cc1cc(C)nc(CCC2=CC2)n1 [Compound 42] | – | – | 2 | Gas @ 343.4 ppm: rating of protection against epinasty ([1]; gas 343.4 ppm (in cell), scale 0 to 10): 3(@ 343.4
C[Si](C)(C)CCCCCCC1C=C1 [Compound 65, 6-(Trimethylsilyl)-hexylcycloprop-2-ene] | 10 | – | 6 | –
CC(C)(C1=CC1)c1ccccc1 [Compound 5, 1-(α,α-dimethylbenzyl)-cyclopropene] | 5 | – | 2 | –
C[Si](C)(CCCCCCC1=CC1)c1ccccc1 [Compound 4, 1-(6-(Phenyldimethylsilyl)-hexyl)-cyclopropene] | 4 | – | 10 | –
